According to patent publication US10836747B2, “Ethane-sulfonate salt of quinoline derivative” (ONO PHARMACEUTICAL CO., LTD., priority 2017, dated 2020):

Legend:
CYP = conditions: mentioned in Patent Literature 5 (WO2015/012298); cited from earlier work
Axl = molecular target: T1, Axl (Homo sapiens, UniProt P30530); conditions: mentioned in Patent Literature 5 (WO2015/012298); cited from earlier work
T1 sequence (P30530 26-894): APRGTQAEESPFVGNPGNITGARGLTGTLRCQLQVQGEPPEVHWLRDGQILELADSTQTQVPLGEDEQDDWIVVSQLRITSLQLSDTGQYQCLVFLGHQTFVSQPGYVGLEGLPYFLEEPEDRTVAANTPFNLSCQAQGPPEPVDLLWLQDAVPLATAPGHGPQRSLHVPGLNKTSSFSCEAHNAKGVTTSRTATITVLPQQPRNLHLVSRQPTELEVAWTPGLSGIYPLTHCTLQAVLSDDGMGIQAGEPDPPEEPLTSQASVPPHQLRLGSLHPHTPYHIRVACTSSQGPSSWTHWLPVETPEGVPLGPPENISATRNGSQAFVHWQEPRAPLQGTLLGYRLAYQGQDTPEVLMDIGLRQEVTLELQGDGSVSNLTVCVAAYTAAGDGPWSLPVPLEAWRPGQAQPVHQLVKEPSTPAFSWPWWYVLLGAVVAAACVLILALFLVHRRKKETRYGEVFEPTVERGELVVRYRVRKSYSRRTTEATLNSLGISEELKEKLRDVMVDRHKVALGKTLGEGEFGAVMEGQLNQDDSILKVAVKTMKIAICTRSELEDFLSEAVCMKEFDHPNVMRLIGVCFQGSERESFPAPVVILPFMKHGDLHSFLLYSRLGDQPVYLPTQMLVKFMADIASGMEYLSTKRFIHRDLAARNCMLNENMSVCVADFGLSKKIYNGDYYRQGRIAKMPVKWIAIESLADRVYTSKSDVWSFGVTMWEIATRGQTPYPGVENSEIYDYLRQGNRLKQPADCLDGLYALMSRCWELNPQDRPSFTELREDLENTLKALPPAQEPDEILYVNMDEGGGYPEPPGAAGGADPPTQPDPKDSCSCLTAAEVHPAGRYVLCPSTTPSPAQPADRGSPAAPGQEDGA

[1] = Evaluation of hygroscopicity (DVS; dynamic vapor sorption); type: physicochemical; conditions: for Weight increase at relative humidity of 90% (%): DVS, 25° C., relative to weight at 0% RH after drying
Procedure: [3] Evaluation of Hygroscopicity (DVS; Dynamic Vapor Sorption)
Device: SGA-100 manufactured by TA Instruments,
Sample amount: 10 to 20 mg,
Measurement temperature: 25° C.,
Drying before measurement: 60° C., 1 hour,
Starting humidity: 0% RH,
Maximum humidity: 90% RH,
Equilibrium criteria: weight change rate in 5 minutes is 0.01% or less,
Sampling interval: 30 seconds,
Data recording interval: two minutes or time at which weight change rate become 0.01% or more.
Various acid addition salts of the compounds A produced in Examples (Examples 7, 8, 9, 10, 11, 12, 13, and 14) and the compound of the present invention (Example 6) were subjected to hygroscopicity evaluation. Based on the measurement conditions shown in [3] in [Study of acid addition salt of compound A], hygroscopicity was evaluated. Sample weight was recorded after the weight of the sample in the relative humidity set every 10% became equilibrium. After drying, the change amount (%) was converted on the basis of the weight when the relative humidity was 0%.

[2] = Light stability evaluation of simple formulation (mixed with CEOLUS PH-301); type: physicochemical; conditions: simple formulation with CEOLUS PH-301 1 to 5 (weight ratio), 2500 Lux D65 lamp, 25° C., 20 days
Procedure: (§1) Ethanesulfonate of the compound A produced in Example 6 and p-toluenesulfonate of the compound A produced in Example 9 were evaluated in terms of the light stability. Each acid addition salt was weighed in a laboratory tube in about 1.8 to 2.2 mg, capped with a plastic cap and wrapped with a parafilm. A sample placed in the transparent laboratory tube was used as an exposure sample, a sample placed in the brown laboratory tube was used as a light shielded sample, and a sample placed in the brown laboratory tube and further covered with aluminum foil was used as an aluminum foil completely shielded sample. Each sample was exposed to light whose total illumination of 1200000 Lux-h or more and total near ultraviolet radiation energy of 200 W·h/m^2 or more by exposing to 2500 Lux D65 lamp at 25° C. for 20 days.
(§2) The area percentage of ethanesulfonate of the compound A and p-toluenesulfonate of the compound A which were not exposed to light and stored at −20° C., and each acid addition salt of the compound A subjected to the above light stability test were calculated under the measurement conditions mentioned above. Next, in each acid addition salt of the compound A, the rate of the area percentage of the acid addition salt of the compound A which was not exposed to light and stored at −20° C. (area percentage of acid addition salt of compound A exposed to light for 20 days/area percentage of acid addition salt of compound A which is not exposed to light and stored at −20° C.×100) was calculated as the residual rate of each compound.
Each acid addition salt of the compound A, regarding to ethanesulfonate of the compound A produced in Example 6 and p-toluenesulfonate of the compound A produced in Example 9, was mixed with CEOLUS (registered trademark) PH-301 (Asahi Kasei Corporation) in a mixing ratio of 1 to 5 (weight ratio) on a medicine paper with a spatula to prepare a simple formulation. The simple formulation was weighed into a laboratory tube in about 3 mg, capped with a plastic cap, and wrapped with a parafilm. Hereinafter, the light exposure condition of the compound, and the measurement conditions were corresponding to the […] of the stability of the active pharmaceutical ingredient of above (1).

[3] = Light stability evaluation of active pharmaceutical ingredient; type: physicochemical; conditions: for residual rate %: active pharmaceutical ingredient, 2500 Lux D65 lamp, 25° C., 20 days
Procedure: as §1
Detector: ultraviolet spectrometer (measurement wavelength: 215 nm),
Column: Imtakt Unison UK-C18 (3 μm, inner diameter: 4.6 mm×150 mm),
Column temperature: 40° C.,
Mobile phase: A liquid: 20 mM KH2PO4 aq. (pH 3.0), B liquid: CH3CN,
Flow rate: 1.0 mL/minute,
Area measurement range: 60 minutes
Sample concentration: 0.5 mg/mL.
as §2

[4] = Brown bottle (light shielded sample)
[5] = Transparent bottle (exposure sample)

Q: Which results are given for COc1cc2nccc(Oc3ccc(NC(=O)c4cc5c(n(-c6ccccc6)c4=O)CCCC5=O)nc3)c2cc1OC [compound A, N-{5-[(6,7-dimethoxy-4-quinolinyl)oxy]-2-pyridinyl}-2,5-dioxo-1-phenyl-1,2,5,6,7,8-hexahydro-3-quinolinecarboxamide]?
A: CYP inhibitory action (in words) (CYP): low CYP inhibitory action; Axl-selective inhibiting activity (in words) (Axl): Axl-selective inhibiting activity

Q: With COc1cc2nccc(Oc3ccc(NC(=O)c4cc5c(n(-c6ccccc6)c4=O)CCCC5=O)nc3)c2cc1OC.O=P(O)(O)O [Phosphate, N-{5-[(6,7-dimethoxy-4-quinolinyl)oxy]-2-pyridinyl}-2,5-dioxo-1-phenyl-1,2,5,6,7,8-hexahydro-3-quinolinecarboxamide phosphate] as the compound, how does the “Weight increase at relative humidity of 90% (%)” value [1] read?
A: 5.5%

Q: Which “Weight increase at relative humidity of 90% (%)” value [1] does the source give for COc1cc2nccc(Oc3ccc(NC(=O)c4cc5c(n(-c6ccccc6)c4=O)CCCC5=O)nc3)c2cc1OC.O=S(=O)(O)CCO [Isethionate, N-{5-[(6,7-dimethoxy-4-quinolinyl)oxy]-2-pyridinyl}-2,5-dioxo-1-phenyl-1,2,5,6,7,8-hexahydro-3-quinolinecarboxamide isethionate] here?
A: 14.5%

Q: For COc1cc2nccc(Oc3ccc(NC(=O)c4cc5c(n(-c6ccccc6)c4=O)CCCC5=O)nc3)c2cc1OC.Cl [Hydrochloride, N-{5-[(6,7-dimethoxy-4-quinolinyl)oxy]-2-pyridinyl}-2,5-dioxo-1-phenyl-1,2,5,6,7,8-hexahydro-3-quinolinecarboxamide hydrochloride], which “Weight increase at relative humidity of 90% (%)” value [1] is on record?
A: 8.0%

Q: With CCS(=O)(=O)O.COc1cc2nccc(Oc3ccc(NC(=O)c4cc5c(n(-c6ccccc6)c4=O)CCCC5=O)nc3)c2cc1OC [Ethanesulfonate, N-{5-[(6,7-dimethoxy-4-quinolinyl)oxy]-2-pyridinyl}-2,5-dioxo-1-phenyl-1,2,5,6,7,8-hexahydro-3-quinolinecarboxamide ethanesulfonate] as the compound, how does the residual rate % ([2]; Aluminum foil shielding) read?
A: 99.7%

Q: And the residual rate % ([2]; Brown bottle)?
A: 98.4%

Q: And the residual rate % ([2]; Transparent bottle)?
A: 59.3%

Q: What about the “Weight increase at relative humidity of 90% (%)” value [1] of the same compound?
A: 0.7%

Q: And the “rate of weight change upon moisture absorption (in words)” value ([1]; among various acid addition salts of the compound A)?
A: small rate of weight change upon moisture absorption

Q: And the residual rate % ([3]; Aluminum foil shielding)?
A: 100.0%

Q: What about the residual rate % [3, 4] of the same compound?
A: 99.5%

Q: What about the residual rate % [3, 5] of the same compound?
A: 94.5%

Q: And the “stability to light (in words)” value ([3]; compared with p-toluenesulfonate of the compound A, API and simple formulation)?
A: more excellent also in terms of the stability to light

Q: For COc1cc2nccc(Oc3ccc(NC(=O)c4cc5c(n(-c6ccccc6)c4=O)CCCC5=O)nc3)c2cc1OC.O=S(=O)(O)c1ccccc1 [Benzensuplhonate, N-{5-[(6,7-dimethoxy-4-quinolinyl)oxy]-2-pyridinyl}-2,5-dioxo-1-phenyl-1,2,5,6,7,8-hexahydro-3-quinolinecarboxamide benzenesulfonate], which “Weight increase at relative humidity of 90% (%)” value [1] is on record?
A: 7.2%

Q: For COc1cc2nccc(Oc3ccc(NC(=O)c4cc5c(n(-c6ccccc6)c4=O)CCCC5=O)nc3)c2cc1OC.CS(=O)(=O)O [Methanesulfonate, N-{5-[(6,7-dimethoxy-4-quinolinyl)oxy]-2-pyridinyl}-2,5-dioxo-1-phenyl-1,2,5,6,7,8-hexahydro-3-quinolinecarboxamide methanesulfonate], which “Weight increase at relative humidity of 90% (%)” value [1] is on record?
A: 4.0%

Q: Which “Weight increase at relative humidity of 90% (%)” value [1] does the source give for COc1cc2nccc(Oc3ccc(NC(=O)c4cc5c(n(-c6ccccc6)c4=O)CCCC5=O)nc3)c2cc1OC.O=S(=O)(O)CCS(=O)(=O)O [Ethanedisulfonate, N-{5-[(6,7-dimethoxy-4-quinolinyl)oxy]-2-pyridinyl}-2,5-dioxo-1-phenyl-1,2,5,6,7,8-hexahydro-3-quinolinecarboxamide ethanedisulfonate] here?
A: 46.4%

Q: With COc1cc2nccc(Oc3ccc(NC(=O)c4cc5c(n(-c6ccccc6)c4=O)CCCC5=O)nc3)c2cc1OC.O=S(=O)(O)O [Sulfate, N-{5-[(6,7-dimethoxy-4-quinolinyl)oxy]-2-pyridinyl}-2,5-dioxo-1-phenyl-1,2,5,6,7,8-hexahydro-3-quinolinecarboxamide sulfate] as the compound, how does the “Weight increase at relative humidity of 90% (%)” value [1] read?
A: 7.2%

Q: Which residual rate % ([2]; Aluminum foil shielding) does the source give for COc1cc2nccc(Oc3ccc(NC(=O)c4cc5c(n(-c6ccccc6)c4=O)CCCC5=O)nc3)c2cc1OC.Cc1ccc(S(=O)(=O)O)cc1 [P-toluenesulfonate, N-{5-[(6,7-dimethoxy-4-quinolinyl)oxy]-2-pyridinyl}-2,5-dioxo-1-phenyl-1,2,5,6,7,8-hexahydro-3-quinolinecarboxamide p-toluenesulfonate] here?
A: 99.9%

Q: And the residual rate % ([2]; Brown bottle)?
A: 83.3%

Q: What about the residual rate % ([2]; Transparent bottle) of the same compound?
A: 40.7%

Q: What about the “Weight increase at relative humidity of 90% (%)” value [1] of the same compound?
A: 2.6%

Q: What about the residual rate % ([3]; Aluminum foil shielding) of the same compound?
A: 100.6%

Q: And the residual rate % [3, 4]?
A: 92.7%

Q: And the residual rate % [3, 5]?
A: 86.1%
